Type in all cases: physicochemical
Series [1] is described as follows: Phase at room temperature. As for the experimental part:
All seven organofluorine temperature sensors of Table 1a were synthesized under the optimized reaction conditions for enabling facile synthesis in the following General Scheme and Examples. Specifically, temperature sensors DD1-DD7 were prepared through an SNAr reaction. Compounds DD-2 and DD-4 required one extra oxidation of DD-1 and DD-3 to provide the respective sulfones. Yields of the SNAr reactions using thiol, HS—(CF2)7—CF3, were low […], while the yields with HS—CH2CH2CH2CF2CF3 fell in the range of […].

A short description of series [2]: 19F NMR aqueous solubility limit measurement. Particulars: for solubility: pH 6.9, aqueous with cosolvent or surfactant or cyclodextrin, kinetic from dmso stock. As for the experimental part:
^19F NMR Aqueous Solubility Limit Measurements: Compound was dissolved in DMSO and then added to 10 mM pH=6.9 phosphate buffer/D2O (9:1 v/v) to make 5% DMSO stock in 500 μL phosphate buffer/D2O at concentration of 10/50/100/150/200/250 μM. Samples were measured with Bruker AVANCE III 500@ equipped with a 5 mm BBFO SmartProbe®. ^19F spectra were obtained at 471 MHz with dummy scans=4, acquisition time=0.57 s, delay time =1 s, […], and the number of scans=800 UV-Visible Spectra: Stock solutions of DD-1, DD-3, and DD-5 were prepared at 10 mM in DMSO and stored in the dark. A 10 mM phosphate buffer at pH=7 was prepared and stock solutions were diluted to 50 μM. UV-visible absorption spectra were obtained using a Horiba Aqualog®.

Series [3] in a line: Direct photolysis kinetics and quantum yield, solar simulator. Particulars: for quantum yield of direct photolysis: 10 mM pH 7 phosphate buffer.
Series [4] is described as follows: Quantitative 19F NMR fluorine mass balance after photolysis (solar simulator). The method, then:
(§1) Quantitative ^19F NMR was conducted to determine if any of the fluorinated functional groups were susceptible to degradation. The environmental persistence and potential impact of these fluorinated temperature sensors will be a function of not only the persistence of the parent compound, but also that of any fluorinated reaction products. Photolysis and ozonation represent natural and engineered processes, respectively, that could degrade these compounds after their use and introduction into the water system.
(§2) ^19F NMR spectra were taken to quantify and partition degradation products from the parent compound signals for photolysis and ozonation (FIG. 7). […] The solutions analyzed contained 50 μM of DD-1 with 14 fluorine atoms, thus a total fluorine concentration of 700 μM, with 200 μM attributed to the aromatic fluorines (Ar—F; −137.04 ppm), 200 μM attributed to the CF2 (−121.34 ppm), and 300 μM attributed to the CF3 (−89.14 ppm) as shown in FIG. 7. […] Top: regional spectrum of untreated DD-1. Middle: regional spectrum of DD-1 degraded by solar simulator. Bottom: regional spectrum of DD-1 degraded by ozone. (left) Spectra of CF3 region. (middle) Spectra of CF2 region. (right) Spectra of Ar—F region. For photolysis and ozonation, 61% and 87% the parent Ar—F signal was lost respectively. A peak at ˜139.1 ppm appeared following ozonation and is hypothesized to be a hydroxylated aromatic ring product, which is a known reaction process for aromatics during ozonation (Vialaton, D., et al (1998) J Photochem Photobiol A Chem 119 (1):39-45). For the parent CF2, the signal decreased by 45% and 79%, but new CF2 products appeared upfield. Under both degradative conditions, new peaks appear in the near regions of the CF2, likely due to ring opening processes. […] For the parent CF3, the signal decreased by 38% and 69%, again with new CF3 products appearing upfield. An excess of 39 μM and 48 μM fluorine for the solar simulator and ozonation, respectively, was found within the CF3 region. These groups are hypothesized to be products produced by opening of the aromatic ring, which could be vinyl fluorines with oxygen and/or sulfur substituents.
Photolysis Experiments: Stock solutions were diluted to 10 μM in the phosphate buffer for kinetic experiments and 50 μM for ^19F NMR experiments. Solutions were placed in 10 mL quartz tubes sealed with cork stoppers with no contact to the solution. The solutions were photolyzed in (i) an Atlas Suntest CPS+® solar simulator with a 1500 W xenon lamp at an intensity of 765 W m-2 using a wavelength range of 290-800 nm at a 30° angle, and (ii) a 450 W medium pressure polychromatic mercury vapor lamp with a quartz immersion well with cooling water circulation, a Pyrex 280 nm cutoff filter (Ace Glass), and a merry-go-round sample holder. Samples were photolyzed until ˜60 to 80% degradation of the parent compound was achieved. For each compound an equivalent tube was prepared and wrapped in aluminum foil as a dark control. Experiments were performed in triplicate

Series [5] is described as follows: Quantitative 19F NMR fluorine mass balance after ozonation. As for the experimental part:
as §1, §2
Ozone-mediated Degradation: The 10 mM DMSO stock solution of DD-1 was used to make 100 mL of a 50 μM solution in the 10 mM pH=7 phosphate buffer. The solution was placed in an Erlenmeyer flask in an ice bath. Ozone (O3) was produced using ultra-high pure oxygen gas (99.99%) with a Pacific Ozone O3 generator and bubbled directly into the sample solution. O3 concentration was previously measured using UV-Vis spectroscopy (Beckman Coulter DU 530). The concentration of O3 (with an ε=3000 M^−1 cm^−1) was determined by direct absorbance at 258 nm. By using a 3:1 dilution, the absorbance obtained is equivalent to the O3 concentration in mM. After 30 minutes the O3 concentration in ultrapure water was 0.61 mM or 29.16 mg/L. Samples were taken over time for 300 minutes and parent compound degradation was monitored via HPLC.

The nature of series [6]: Direct photolysis kinetics, mercury vapor lamp.

“Also recorded” adds a separate entry of the source. Like-named read-outs stand apart in the source and are kept apart here.

Take `FC(F)(F)C(F)(F)C(F)(F)C(F)(F)N(C(F)(F)C(F)(F)C(F)(F)C(F)(F)F)C(F)(F)C(F)(F)C(F)(F)C(F)(F)F` [CC-1, perfluorotributylamine, reference compound]: the Phase entry is “liquid” in series [1] and “solid at room temperature” in series [1] (listed as CC-1 PFTBA). For the same compound, the “water solubility (in words)” value in series [2] is on record as “limited water solubility”.

For the compound `Fc1c(F)c(-c2c(F)c(F)c(SCCC(F)(F)C(F)(F)C(F)(F)C(F)(F)C(F)(F)C(F)(F)C(F)(F)C(F)(F)F)c(F)c2F)c(F)c(F)c1SCCC(F)(F)C(F)(F)C(F)(F)C(F)(F)C(F)(F)C(F)(F)C(F)(F)C(F)(F)F` [CC-2, (perfluoro-[1,1′-biphenyl]-4,4′-diyl)bis((3,3,4,4,5,5,6,6,7,7,8,8,9,9,10,10,10-heptadecafluorodecyl)sulfane), reference compound], the Phase entry in series [1] is reported as “solid”.

With `Fc1c(F)c(SCCC(F)(F)C(F)(F)C(F)(F)C(F)(F)C(F)(F)C(F)(F)C(F)(F)C(F)(F)F)c(F)c(F)c1SCCC(F)(F)C(F)(F)C(F)(F)C(F)(F)C(F)(F)C(F)(F)C(F)(F)C(F)(F)F` [CC-3, (perfluoro-1,4-phenylene)bis((3,3,4,4,5,5,6,6,7,7,8,8,9,9,10,1 0,10-heptadecafluorodecyl)sulfane), reference compound], the Phase entry in series [1] is listed as “solid”.

As usually defined, the solubility is how much of the substance goes into solution per volume. In the case of `Fc1c(F)c(SCCCC(F)(F)C(F)(F)F)c(F)c(F)c1SCCCC(F)(F)C(F)(F)F` [DD-1, (perfluoro-1,4-phenylene)bis((4,4,5,5,5-pentafluoropentyl)sulfane)], in series [1], the Phase result is “liquid phase at room temperature”. The compound further came in with a solubility in series [2] of at most 200 µM. Moreover, the “quantum yield of direct photolysis” value in series [3] is listed as 0.0272 mol Ei^−1. For the same compound, in series [4] (photolysis, 50 μM), the “Fluoride (F−) production” value is 79 µM, the “parent Ar—F 19F NMR signal lost” value was 61%, the “parent CF2 signal decrease” value is 45% and the “parent CF3 signal decrease” value was 38%. Moreover, the “sum of fluorine concentrations for Ar—F, F− and ring opening products/vinyl F” value in series [4] (photolysis, initial Ar—F 200 μM) was 198 µM. The “excess fluorine found within the CF3 region” value in series [4] (solar simulator, 50 μM) was 39 µM. For the same compound, in series [5] (O3, initial Ar—F 200 μM), the “sum of fluorine concentrations for Ar—F, F− and ring opening products/vinyl F” value amounted to 200 µM. Further, in series [5] (ozonation, 50 μM), the “Fluoride (F−) production” value amounted to 117 µM, the “excess fluorine found within the CF3 region” value is 48 µM, the “parent Ar—F 19F NMR signal lost” value was determined as 87% and the “parent CF2 signal decrease” value came to 79%. Also, the “parent CF3 signal decrease” value in series [5] (ozonation, 50 μM) came to 69%.

With `O=S(=O)(CCCC(F)(F)C(F)(F)F)c1c(F)c(F)c(S(=O)(=O)CCCC(F)(F)C(F)(F)F)c(F)c1F` [DD-2, 1,2,4,5-tetrafluoro-3,6-bis((4,4,5,5,5-pentafluoropentyl)sulfonyl) benzene], the Phase entry in series [1] is “white solids; also recorded: solid”.

`Fc1c(F)c(-c2c(F)c(F)c(SCCCC(F)(F)C(F)(F)F)c(F)c2F)c(F)c(F)c1SCCCC(F)(F)C(F)(F)F` [DD-3, (perfluoro-[1,1′-biphenyl]-4,4′-diyl)bis((4,4,5,5,5-pentafluoropentyl)sulfane)]: in series [1], the Phase result is recorded as “liquid phase at room temperature”. In addition, the solubility in series [2] was at most 200 µM. Also, the “quantum yield of direct photolysis” value in series [3] is 0.0267 mol Ei^−1.

On to `O=S(=O)(CCCC(F)(F)C(F)(F)F)c1c(F)c(F)c(-c2c(F)c(F)c(S(=O)(=O)CCCC(F)(F)C(F)(F)F)c(F)c2F)c(F)c1F` [DD-4, 2,2′,3,3′,5,5′,6,6′-octafluoro-4,4′-bis((4,4,5,5,5-pentafluoropentyl)sulfonyl)-1,1′-biphenyl], for which the Phase result in series [1] is “solid”.

As for `Fc1c(F)c(Sc2c(F)c(F)c(SCCCC(F)(F)C(F)(F)F)c(F)c2F)c(F)c(F)c1SCCCC(F)(F)C(F)(F)F` [DD-5, bis(2,3,5,6-tetrafluoro-4-((4,4,5,5,5-pentafluoropentyl)thio)phenyl)sulfane], the Phase result in series [1] is recorded as “solid”. Further, in series [3], the “rank of photolysis rate constant” value is “fastest” and the “quantum yield of direct photolysis” value was 0.0520 mol Ei^−1. Further, the “rank of photolysis rate constant” value in series [6] was “fastest”.

As for `O=S(=O)(c1c(F)c(F)c(SCCCC(F)(F)C(F)(F)F)c(F)c1F)c1c(F)c(F)c(SCCCC(F)(F)C(F)(F)F)c(F)c1F` [DD-6, (sulfonylbis(2,3,5,6-tetrafluoro-4,1-phenylene))bis((4,4,5,5,5-pentafluoropentyl)sulfane)], the Phase entry in series [1] is given as “solid”.

Source of the values: US20240302387A1, “HIGHLY FLUORINATED COMPOUNDS FOR 19F MRI-BASED THERMOMETRY” (Regents of the University of Minnesota, priority 2023, published 2024).
